Test results taken from patent publication US10800741B2 (ANCUREALL PHARMACEUTICAL (SHANGHAI) CO., LTD., priority 2017, dated 2020).

Tested on: NCI-H1581
Assay: NCI-H1581 subcutaneous transplantation tumor model, tumor growth inhibition in vivo
Design: species or system Bab/c immunodeficient mice
Details: 17th day after the administration
From the text: Test Example 7 Inhibition of Tumour Cell Growth In Vivo
In order to establish subcutaneous transplantation tumor models of human non-small cell lung cancer and endometrial adenocarcinoma, Bab/c immunodeficient mice were subcutaneously inoculated with NCI-H1581 (ATCC) and AN3-CA (ATCC) cells, respectively.
Experimental animals: 6-week female Bab/c immunodeficient mice (about 20 g in weight). The mice were purchased from Shanghai Sippr-BK Experimental Animal Co., Ltd., raised in Animal Center of Shanghai University of Traditional Chinese Medicine, approved by Ethical Committee of Shanghai University of Traditional Chinese Medicine. The breeding environment was SPF grade.
Test samples: the present compounds 66 (purity: 99%), solid powder, stored at 4˜8° C.
Cells and animal models: NCI-H1581 cells were cultured in RPMI 1640 medium containing 10% fetal bovine serum. Log-phase NCI-H1581 cells were collected and re-suspended with PBS to 2.5×10^7 cells per ml for subcutaneous single-point inoculation of Bab/c immunodeficient mice at the right side of the back of mouse (5×10^6 cells, 0.2 ml).
When the tumor volume reached 100˜200 mm^3, the mice were randomly divided according to tumor size. The experiment was divided into solvent control group and drug administration group (compound 66 group). 6 mice in each group were administered 0.1 ml per 10 g body weight by intraperitoneal injection (i.p) once a day. The tumor was measured three times a week, and the tumor volume was calculated as: long diameter×short diameter^2/2. When the average tumor volume of the control group reached 2000 mm^3, the experiment was over and then the tumor was weighed and subjected to molecular pathology assay. Efficacy was assessed based on relative tumor growth inhibition value (TGI), and safety was assessed based on animal weight change.
Preparation of test samples: appropriate amount of compound 66 was weighed and mixed with ultrapure water; and methanesulfonic acid was added for clarification; and then 4M NaOH was added to adjust the PH to 3.8; and a final volume was made up with ultrapure water. The final concentrations were 0.5 mg/ml and 0.25 mg/ml, respectively.
T/C % refers to the relative tumor growth rate, that is, the percentage of relative tumor volume or tumor weight of the administration group and the control group at a certain time point. […]
Tumor volume data of 17 days after the start of administration were selected for statistical analysis among different groups, and independent sample T test was used to compare whether there were significant differences in relative tumor volume between the administration group and the control group. All data were analyzed using SPSS 18.0. […]

Structure (SMILES): COCCOc1cc2nccc(Oc3ccc(NC(=O)Nc4cc(C(C)(C)C)n[nH]4)c(Cl)c3)c2cc1NC(C)=O [Compound 66, N-[4-{4-[3-(5-tert-butyl-2H-pyrazol-3-yl)-ureido]-3-chloro-phenoxy}-7-(2-methoxy-ethoxy)-quinolin-6-yl]-acetamide]
- T/C (%) (2.5 mg/kg i.p once a day): 7.91%
- TGI (%) (2.5 mg/kg i.p once a day): 92.09%
- T/C (%) (5 mg/kg i.p once a day): 1.07%
- TGI (%) (5 mg/kg i.p once a day): 98.93%
